Test results from publication PMC11597817, “Modulation of Multispecific Transporters by Uncaria tomentosa Extract and Its Major Phytoconstituents” (Pharmaceutics, 2024).

What was measured:
[1] = tested on: HEK293-MDR1; test: Antiproliferative MTT assay; assay type: cell-based, human; settings: 30 μM pure natural product, 72 h
Method: For the determination of the antiproliferative properties of the prepared extract and selected alkaloids (isopteropodine, mitraphylline, and uncarine D), an MTT assay was applied on our HEK293 cell panel (see Table S4). […] All were maintained in a minimal essential medium completed with 10% fetal bovine serum, 1% non-essential amino acids, and 1% penicillin–streptomycin at 37 °C in a humidified atmosphere containing 5% CO2. All cell lines were purchased from the European Collection of Cell Cultures (Salisbury, UK), except for SiHa and C33A, which were from the American Tissue Culture Collection, LGC Standards GmbH (Wesel, Germany). Cell culture media and supplements were obtained from Lonza Group Ltd. (Basel, Switzerland). Cells were seeded into 96-well plates (C33A 10,000/well, all others 5000/well); after overnight incubation, the test substances were added and incubated for another 72 h under cell-culturing conditions. Uncaria tomentosa extract and the alkaloids were tested in the 1–90 μg/mL and 1–30 μM ranges, respectively. Finally, 20 μL of 5 mg/mL MTT solution was added to each well and incubated for 4 h; the medium was discarded, and the precipitated formazan crystals were dissolved in DMSO for 60 min with shaking. The absorbance was determined using a microplate reader (SPECTROstar Nano, BMG Labtech GmbH). […]

[2] = tested on: NIH/3T3; test: Antiproliferative MTT assay; assay type: cell-based, murine; settings: 30 μM pure natural product, 72 h
Method: For the determination of the antiproliferative properties of the prepared extract and selected alkaloids (isopteropodine, mitraphylline, and uncarine D), an MTT assay was applied on our […] cell panel (see Table S4). […] All were maintained in a minimal essential medium completed with 10% fetal bovine serum, 1% non-essential amino acids, and 1% penicillin–streptomycin at 37 °C in a humidified atmosphere containing 5% CO2. All cell lines were purchased from the European Collection of Cell Cultures (Salisbury, UK), except for SiHa and C33A, which were from the American Tissue Culture Collection, LGC Standards GmbH (Wesel, Germany). Cell culture media and supplements were obtained from Lonza Group Ltd. (Basel, Switzerland). Cells were seeded into 96-well plates (C33A 10,000/well, all others 5000/well); after overnight incubation, the test substances were added and incubated for another 72 h under cell-culturing conditions. Uncaria tomentosa extract and the alkaloids were tested in the 1–90 μg/mL and 1–30 μM ranges, respectively. Finally, 20 μL of 5 mg/mL MTT solution was added to each well and incubated for 4 h; the medium was discarded, and the precipitated formazan crystals were dissolved in DMSO for 60 min with shaking. The absorbance was determined using a microplate reader (SPECTROstar Nano, BMG Labtech GmbH). Two independent experiments were performed with five parallels for each condition. Cisplatin, a clinically used anticancer agent (Ebewe GmbH, Unterach, Austria), was included as a reference compound. Calculations were conducted using the GraphPad Prism 10.0 software (GraphPad Software Inc., San Diego, CA, USA).
Table S4 – Antiproliferative properties of Uncaria tomentosa extract, three natural products (isopteropodine, mitraphylline, and uncarine D) and the
reference agent cisplatin.
Cell line Uncaria tomentosa isopteropodine mitraphylline uncarine D [95% confidence
1: The highest applied concentration was 90 μg/mL and 30 μM for the extract and the pure natural products, respectively.
2: Inhibitions less than 20% compared to the untreated control were regarded as negligible and were not given numerically.

**Q.** With COC(=O)C1=CO[C@@H](C)[C@@H]2CN3CC[C@@]4(C(=O)Nc5ccccc54)[C@@H]3C[C@H]12 [isopteropodine] as the compound, how does the “Cell growth inhibition at the highest concentration (% ± SEM)” value (shortened to “Cell growth inhibition … (% ± SEM)”) [1] read?
**A.** < 20%

**Q.** And the “Cell growth inhibition … (% ± SEM)” value [2]?
**A.** < 20%

**Q.** Which “Cell growth inhibition … (% ± SEM)” value [1] does the source give for COC(=O)C1=CO[C@@H](C)[C@H]2CN3CC[C@]4(C(=O)Nc5ccccc54)[C@@H]3C[C@H]12 [mitraphylline] here?
**A.** < 20%

**Q.** And the “Cell growth inhibition … (% ± SEM)” value [2]?
**A.** < 20%
